In the supplement of paper PMC10307832 one finds relative viability data, which are given here for 4 cell lines.

Holding throughout (assay): relative viability (nuclei count vs DMSO), 5 days (fraction); higher = more cells survive
Compound in assay [1]: COC1=C(C=C(C=C1)C2=CC3=NC=CN3C(=N2)NC4=C(C=CC=N4)C(=O)N)OC [BAY61-3606] + N=C(N)NC(=N)NCCc1ccccc1 [Phenformin] (partner 250 µM)
In a few lines: (§1)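 Nuclei were stained with Hoechst during a one-step fixation (final 0.05% Triton X-100, 1% formaldehyde, 1 ug/ml Hoechst) carried out 5 days after dosing, then counted on 4× images. The cells, lung cancer lines in 1536-well plates, had been dosed by pin tool the day after seeding with one drug alone or a fixed anchor-drug dose plus five library-drug doses (not always all listed) in √10 steps. Relative viability is the nuclei count in treated wells divided by that in vehicle wells, and each value is the median of duplicate plates.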

Compound in assay [2]: COC1=C(C=C(C=C1)C2=CC3=NC=CN3C(=N2)NC4=C(C=CC=N4)C(=O)N)OC [BAY61-3606] + Cc1nc(NC(=O)N2CCC[C@H]2C(N)=O)sc1-c1ccnc(C(C)(C)C(F)(F)F)c1 [Alpelisib] (partner 2 µM)
In a few lines:
as §1

Compound in assay [3]: COc1cccc2c1C(=O)c1c(O)c3c(c(O)c1C2=O)C[C@@](O)(C(=O)CO)C[C@@H]3O[C@H]1C[C@H](N)[C@H](O)[C@H](C)O1 [Doxorubicin] + O=C(CCCCCCC(=O)Nc1ccccc1)NO [Vorinostat] (partner 1 µM)
In a few lines: as §1

Compound in assay [4]: COC1=C(C=C(C=C1)C2=CC3=NC=CN3C(=N2)NC4=C(C=CC=N4)C(=O)N)OC [BAY61-3606] + CC(=O)Nc1cccc(-n2c(=O)n(C3CC3)c(=O)c3c(Nc4ccc(I)cc4F)n(C)c(=O)c(C)c32)c1 [Trametinib] (partner 0.02 µM)
Put shortly:
as §1

With NCI-H1975, the relative viability in assay [1] (first compound 0.02 µM) was found to be 0.41; in assay [1] (first compound 0.06325 µM), 0.413; in assay [1] (first compound 0.2 µM), 0.412; in assay [1] (first compound 0.6325 µM), 0.394; in assay [1] (first compound 2 µM), 0.301; in assay [2] (first compound 0.02 µM) it was 0.667. Further, the relative viability came out at 0.645 in assay [2] (first compound 0.06325 µM); 0.62 in assay [2] (first compound 0.2 µM); 0.507 in assay [2] (first compound 0.6325 µM); 0.295 in assay [2] (first compound 2 µM); 0.731 in assay [3] (first compound 0.001 µM); 0.735 in assay [3] (first compound 0.003162 µM). Further, the relative viability was 0.678 in assay [3] (first compound 0.01 µM); 0.679 in assay [3] (first compound 0.03162 µM); 0.531 in assay [3] (first compound 0.1 µM); 0.409 in assay [4] (first compound 0.02 µM); 0.295 in assay [4] (first compound 0.06325 µM); 0.354 in assay [4] (first compound 0.2 µM). The relative viability in assay [4] (first compound 0.6325 µM) came out at 0.325; in assay [4] (first compound 2 µM) it was 0.254.

On to NCI-H1993, for which the relative viability in assay [1] (first compound 0.02 µM) is 0.547; in assay [1] (first compound 0.06325 µM), 0.502; in assay [1] (first compound 0.2 µM) it was 0.545; in assay [1] (first compound 0.6325 µM), 0.493; in assay [1] (first compound 2 µM) it was 0.543; in assay [2] (first compound 0.02 µM), 0.644. Moreover, the relative viability in assay [2] (first compound 0.06325 µM) was 0.674; in assay [2] (first compound 0.2 µM), 0.719; in assay [2] (first compound 0.6325 µM) it was 0.758; in assay [2] (first compound 2 µM) it was 0.703; in assay [3] (first compound 0.001 µM) it was 0.0284; in assay [3] (first compound 0.003162 µM) it was 0.67. For the same cell line, the relative viability turned out to be 0.851 in assay [3] (first compound 0.01 µM); 0.509 in assay [3] (first compound 0.03162 µM); 0.462 in assay [3] (first compound 0.1 µM); 0.498 in assay [4] (first compound 0.02 µM); 0.507 in assay [4] (first compound 0.06325 µM); 0.544 in assay [4] (first compound 0.2 µM). Also, the values for the relative viability in assay [4] (first compound 0.6325 µM) and in assay [4] (first compound 2 µM) were 0.538 and 0.518, respectively.

On to NCI-H2009, for which the relative viability in assay [1] (first compound 0.02 µM) stood at 0.524; in assay [1] (first compound 0.06325 µM) it was 0.38; in assay [1] (first compound 0.2 µM), 0.469; in assay [1] (first compound 0.6325 µM), 0.524; in assay [1] (first compound 2 µM), 0.424; in assay [2] (first compound 0.02 µM), 1.11. Also, the relative viability is 1.14 in assay [2] (first compound 0.06325 µM); 1.09 in assay [2] (first compound 0.2 µM); 1.21 in assay [2] (first compound 0.6325 µM); 1.08 in assay [2] (first compound 2 µM); 0.682 in assay [3] (first compound 0.001 µM); 0.77 in assay [3] (first compound 0.003162 µM). The relative viability in assay [3] (first compound 0.01 µM) was 0.738; in assay [3] (first compound 0.03162 µM) it was 0.534; in assay [3] (first compound 0.1 µM) it was 0.329; in assay [4] (first compound 0.02 µM), 0.318; in assay [4] (first compound 0.06325 µM) it was 0.229; in assay [4] (first compound 0.2 µM), 0.378. Also, the relative viability in assay [4] (first compound 0.6325 µM) is 0.303; in assay [4] (first compound 2 µM) it was 0.206.

As for NCI-H2023, the relative viability in assay [1] (first compound 0.02 µM) came out at 0.491; in assay [1] (first compound 0.06325 µM) it was 0.369; in assay [1] (first compound 0.2 µM), 0.386; in assay [1] (first compound 0.6325 µM) it was 0.438; in assay [1] (first compound 2 µM), 0.322; in assay [2] (first compound 0.02 µM), 0.614. In addition, the relative viability in assay [2] (first compound 0.06325 µM) stood at 0.607; in assay [2] (first compound 0.2 µM), 0.604; in assay [2] (first compound 0.6325 µM), 0.6; in assay [2] (first compound 2 µM), 0.471; in assay [3] (first compound 0.001 µM) it was 0.463; in assay [3] (first compound 0.003162 µM), 0.657. Further, the relative viability was found to be 0.272 in assay [3] (first compound 0.01 µM); 0.0749 in assay [3] (first compound 0.03162 µM); 0.109 in assay [3] (first compound 0.1 µM); 0.571 in assay [4] (first compound 0.02 µM); 0.64 in assay [4] (first compound 0.06325 µM); 0.518 in assay [4] (first compound 0.2 µM). Also, the relative viability in assay [4] (first compound 0.6325 µM) is 0.587; in assay [4] (first compound 2 µM), 0.413.
